{"source": "paper PMC11063903", "about": "“Engineering a human P2X2 receptor with altered ligand selectivity in yeast” (The Journal of Biological Chemistry, 2024)", "key": {"P2X2 G353R": {"biological_target": "T1, P2X2 G353R (Homo sapiens, UniProt Q9UBL9, G353R)", "T1 construct": "expressed in transfected cells; host or cells: S. cerevisiae BY4741 background", "T1 sequence (Q9UBL9 whole entry G353R)": "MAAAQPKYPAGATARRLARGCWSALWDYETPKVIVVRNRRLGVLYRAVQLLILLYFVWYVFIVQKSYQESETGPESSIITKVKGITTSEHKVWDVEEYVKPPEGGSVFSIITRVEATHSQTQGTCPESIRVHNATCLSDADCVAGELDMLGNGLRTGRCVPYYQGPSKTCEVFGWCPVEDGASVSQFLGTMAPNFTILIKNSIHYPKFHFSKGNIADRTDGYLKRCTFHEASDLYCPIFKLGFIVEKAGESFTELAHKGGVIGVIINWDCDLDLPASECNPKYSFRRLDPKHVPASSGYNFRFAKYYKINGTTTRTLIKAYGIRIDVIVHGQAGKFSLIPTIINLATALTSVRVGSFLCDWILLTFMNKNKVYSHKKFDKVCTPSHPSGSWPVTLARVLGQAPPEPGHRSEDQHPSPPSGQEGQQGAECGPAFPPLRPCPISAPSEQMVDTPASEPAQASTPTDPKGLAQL", "experiment": "Site-saturation screen, fast kinetic assay in yeast, G353R", "format": "cell-based", "settings": "500 μM ATP, ΔF/ΔT normalized to WT", "protocol": "(§1) Figure 2 P2X2 SNP testing.A, homology model of P2X2 with the clinically implicated SNPs highlighted. V60 is highlighted in magenta and G353 is highlighted in dark blue. Lines indicate the positions of the mutations on each of the three monomers. B, zoomed view of the transmembrane region from the purple box in (A). V60 is magenta and G353 is dark blue. The structure is rotated 60° on the right image. C, screening data from site-saturation of the V60 residue in saturating ATP concentration (500 μM f.c.) using the fast kinetic assay. Signal onset values (ΔF/ΔT) are normalized to values from the WT receptor. […] Each of 2 to 3 replicates is represented as a single point. […]\n(§2) GCaMP assays were performed as follows. […] Cells were loaded onto a black, clear bottom microplate and imaged on a FlexStation3 plate reader. […] Fluorescence was measured with an excitation at 485 nm, and emission 525 nm. […] For strains with mScarlet, fluorescence was read with excitation 570 nm/emission 610 nm. Slopes were calculated from the last 6 points of measurement and were normalized to the positive control samples. Any replicate in which the mScarlet value was measured to be over 2 standard deviations less than the mean for that set was discarded from further analysis."}, "[1]": {"system": "P2X2 all variants at V60, including the V60L mutation", "experiment": "Site-saturation screen, fast kinetic assay in yeast, V60 variants", "format": "cell-based, human", "settings": "500 μM ATP f.c., ΔF/ΔT normalized to WT", "protocol": "as §1, §2"}, "P2X2 F303Y": {"biological_target": "T2, P2X2 F303Y (Homo sapiens, UniProt Q9UBL9, F303Y)", "T2 construct": "expressed in transfected cells; host or cells: S. cerevisiae BY4741 background", "T2 sequence (Q9UBL9 1-471 F303Y)": "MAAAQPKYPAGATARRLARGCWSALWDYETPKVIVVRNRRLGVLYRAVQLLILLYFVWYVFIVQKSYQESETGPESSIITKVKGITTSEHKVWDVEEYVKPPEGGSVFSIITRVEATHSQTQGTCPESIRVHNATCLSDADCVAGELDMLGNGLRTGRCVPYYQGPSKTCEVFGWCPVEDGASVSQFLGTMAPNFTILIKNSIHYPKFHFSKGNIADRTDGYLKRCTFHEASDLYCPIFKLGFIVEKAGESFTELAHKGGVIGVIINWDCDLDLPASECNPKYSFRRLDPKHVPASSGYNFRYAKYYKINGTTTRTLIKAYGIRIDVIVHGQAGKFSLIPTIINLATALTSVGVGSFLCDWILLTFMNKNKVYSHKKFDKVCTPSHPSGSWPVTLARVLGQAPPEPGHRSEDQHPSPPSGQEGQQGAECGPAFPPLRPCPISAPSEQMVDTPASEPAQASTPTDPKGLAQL", "experiment": "Fast GCaMP-mScarletI assay in yeast, P2X2 F303Y", "format": "cell-based", "settings": "site-saturation screen, 500 μM ATP, ± sd"}, "P2X2 A304W": {"biological_target": "T3, P2X2 A304W (Homo sapiens, UniProt Q9UBL9, A304W)", "T3 construct": "expressed in transfected cells; host or cells: S. cerevisiae BY4741 background", "T3 sequence (Q9UBL9 1-471 A304W)": "T2 sequence (Q9UBL9 1-471 F303Y) with Y303F, A304W", "experiment": "Fast GCaMP-mScarletI assay in yeast, P2X2 A304W", "format": "cell-based", "settings": "site-saturation screen, 500 μM ATP, ± sd"}, "P2X2 A304Y": {"biological_target": "T4, P2X2 A304Y (Homo sapiens, UniProt Q9UBL9, A304Y)", "T4 construct": "expressed in transfected cells; host or cells: Saccharomyces cerevisiae BY4741 derivative, genome-integrated, galactose-inducible", "T4 sequence (Q9UBL9 whole entry A304Y, the tested form may be a part)": "as the sequence (Q9UBL9 whole entry G353R) above, with A304Y, R353G counted along it", "experiment": "Site-saturation screen of ligand-binding domain with ATP, A304Y", "format": "cell-based", "settings": "500 μM ATP, ± sd", "from_the_text": "(§3) The yeast P2X2 screening platform poses an opportunity to probe the structure-function of the ligand-binding domain in detail. The conserved P2X “NFR” motif at residues 300 to 302 is directly involved in bonding to the ATP triphosphate moiety ([41]), so we mutagenized residues at or near this motif (298–304), ultimately covering 133 variants (7 sites, 19 residues each). […] We compared our results to phylogenetic data based on a multiple sequence alignment (MSA) from a curated set of 419 related P2X homologs (Figs. 3B, and S5; Table S1).\n(§4) Figure 3 Structure-function analysis of the ligand binding domain.A, heat map summarizing the screening data of ATP with seven site-saturation libraries surrounding the NFR-motif. B, sequence-logo plot of the mutagenized residues and percent identity scores as determined from MSA. C, homology model of P2X2 colored by sequence conservation as calculated from a multiple sequence alignment of 419 related P2X genes. Conservation is scored on a log scale where maroon is more conserved and blue is less conserved. D, ATP in the ligand-binding pocket of P2X2. […]\n(§5) GCaMP assays were performed as follows. […] Cells were loaded onto a black, clear bottom microplate and imaged on a FlexStation3 plate reader. […] Fluorescence was measured with an excitation at 485 nm, and emission 525 nm. […] For strains with mScarlet, fluorescence was read with excitation 570 nm/emission 610 nm. […]"}, "[2]": {"biological_target": "T5, P2X2 G353 serine substitution (G353S) (Homo sapiens, UniProt Q9UBL9, G353S)", "T5 construct": "expressed in transfected cells; host or cells: S. cerevisiae BY4741 background", "T5 sequence (Q9UBL9 whole entry G353S)": "as the sequence (Q9UBL9 whole entry G353R) above, with R353S counted along it", "experiment": "Site-saturation screen, fast kinetic assay in yeast, G353 serine", "format": "cell-based", "settings": "500 μM ATP, ΔF/ΔT normalized to WT", "protocol": "as §1, §2"}, "P2X2 N300S": {"biological_target": "T6, P2X2 N300S (Homo sapiens, UniProt Q9UBL9, N300S)", "T6 construct": "expressed in transfected cells; host or cells: S. cerevisiae BY4741 background", "T6 sequence (Q9UBL9 whole entry N300S, the tested form may be a part)": "as the sequence (Q9UBL9 whole entry G353R) above, with N300S, R353G counted along it", "experiment": "Site-saturation screen of ligand-binding domain with ATP, N300S", "format": "cell-based", "settings": "500 μM ATP, ± sd", "from_the_text": "as §3, §4, §5"}}, "note": "Residue numbers refer to the chain shown, from its start.", "data": [{"smiles": "Nc1ncnc2c1ncn2[C@@H]1O[C@H](COP(=O)(O)OP(=O)(O)OP(=O)(O)O)[C@@H](O)[C@H]1O", "note": "[ATP]", "values": [{"measurement": "function in the assay", "setting": "P2X2 G353R", "result": "not observed to be functional"}, {"measurement": "response to ATP", "setting": "[1]", "result": "unresponsive"}, {"measurement": "signal, % of WT signaling", "setting": "P2X2 F303Y", "result": "113 ± 45", "unit": "%"}, {"measurement": "signal, % of WT signaling", "setting": "P2X2 A304W", "result": "125 ± 47", "unit": "%"}, {"measurement": "signal, % of WT signaling", "setting": "P2X2 A304Y", "result": "52 ± 10", "unit": "%"}, {"measurement": "signaling, % of WT activity", "setting": "[2]", "result": 95, "unit": "%"}, {"measurement": "signal, % of WT signaling", "setting": "P2X2 N300S", "result": "151 ± 16", "unit": "%"}]}]}
